Assay results published in patent publication US20150258043A1, “USE OF SPHINGOID LONG CHAIN BASES AND THEIR ANALOGS IN TREATING AND PREVENTING BACTERIAL INFECTIONS” (YEDA RESEARCH AND DEVELOPMENT CO. LTD., priority 2012, published 2015).

Columns and labels:
[1] = test system: P. aeruginosa strains 762, PA14 and ATCC 27853; assay: Pulmonary P. aeruginosa infection of CF and CerS2 null mice, inhalation treatment (bacteria in lung, sickness score); assay type: in vivo, mouse; settings: CF mice; C16-ceramide and sphingosine at a 1:1 molar ratio, 1 h before infection, strain 762
Description: (A,B) The number of bacteria in the lungs and the overall sickness score (C,D) of WT, CerS2 null and CF mice 3-4 h after intranasal infection with 1×10^8 CFU of P. aeruginosa strains 762 (A,C) and CF mice with strains PA14 and ATCC 27853. Mice were inhaled with 0.9% NaCl or acid ceramidase 1 h prior (b.i.) to infection, or with sphingosine or FTY720 1 h before (b.i.) or 1 h after (a.i.) infection. Sickness score 4, severely affected (unresponsive animal); score 3 affected, (heavy breathing, low body temperature, ruffled fur) score 2, moderately affected (ruffled fur, heavy breathing); score 1, slightly affected (ruffled fur); score 0, unaffected (healthy appearance). Data are means±s.d., n=4.
Pulmonary infection of CF or CerS2 mice was achieved by intranasal application of P. aeruginosa strains 762, ATCC 27853 or PA14. Mice inhaled acid ceramidase, sphingosine, FTY720 or a combination of sphingosine and ceramide 1 hr before or after pulmonary infection. The number of bacteria in the lung was determined by culturing aliquots of lysed lungs on agar plates. Clinical symptoms of the infection were scored.
Inhalation was performed with a PARI Boy SX nebulizer (PARI GmbH, Starnberg, Germany). This nebulizer generates a fine aerosol mist by pumping the fluid with an air jet. The mice inhaled the aerosol via a mask that is part of an oral inhalation device for children (LL-Nebulizer); the mask was clipped at the sides to cover only the mouse's nose and the surrounding part of the face. […]
P. aeruginosa were grown for 14 to 14.5 h on fresh tryptic soy agar (TSA) plates (Becton Dickinson Biosciences, Germany). […] The bacterial OD was determined, and the bacteria were diluted in prewarmed H/S to a concentration of 1×10^8 CFU per 20 μL. […]
Lungs were removed, homogenised and lysed for 10 min in 5 mg/ml saponin to release intracellular bacteria. […] Bacterial counts (CFU) were counted after 18 h.

P. aeruginosa strain 762 = assay: Incubation of bacteria with sphingosine and increasing C16-ceramide, CFU count; assay type: cell-based, Pseudomonas aeruginosa; settings: in the presence of 10 μM sphingosine
Description: FIGS. 4A-D. The ceramide/sphingosine ratio regulates P. aeruginosa growth. (A) Representative image of two independent experiments (left hand panel) after addition of Sytox green (1 μM) for 30 min in the absence or presence of 50 μM sphingosine or 50 μM C16-ceramide (C16-Cer) in 1% DMSO. Fluorescent and thus permeabilised bacteria were quantified (right hand panel). (B-D) The inhibitory effect of sphingosine on the growth of P. aeruginosa strain 762 is decreased in vitro and in vivo by C16-ceramide. (B) Bacteria were incubated with 10 μM sphingosine, and increasing concentrations of C16-ceramide, and growth was determined by counting colony forming unit (CFU) after 24 hrs growth on LB agar plates. Number of bacteria in the lung (C) and sickness score (D) of CF mice or WT mice inhaled with either sphingosine or a combination of sphingosine and C16-ceramide 1 h before (b.i.) with 10^8 P. aeruginosa CFU strain 762. Data are means±s.d., n=3 in (A,B) and n=4 in (C,D).
The in vitro effect of sphingosine in the presence or absence of ceramide was determined by incubation of early-logarithmic grown P. aeruginosa with sphingosine or ceramide or both in different ratios and measurement of surviving bacteria measuring the number of colony forming units 24 and 48 hrs after treatment.
Bacteria were incubated in vitro with sphingosine and increasing amounts of C16-ceramide. […]

Q: Which “effect of co-inhaled C16-ceramide on protection by sphingosine” value [1] does the source give for `CCCCCCCCCCCCC/C=C/[C@@H](O)[C@H](CO)NC(=O)CCCCCCCCCCCCCCC` [C16-ceramide] here?
A: abrogated the protective effect of sphingosine and restored susceptibility to P. aeruginosa infection

Q: What about the “C16-ceramide concentration restoring bacterial growth” value (P. aeruginosa strain 762) of the same molecule?
A: ≥ 10 µM
